Results as given in ChEMBL document CHEMBL5356947, “Mitochondria-targeted biotin-conjugated BODIPYs for cancer imaging and therapy” (RSC Med Chem, 2023).

What was measured:
[1] = system: MDA-MB-231; assay: Photocytotoxicity against human MDA-MB-231 cells assessed as inhibition of cell growth incubated for 24 hrs by MTT assay; type: functional, cell-based; settings: MDA-MB-231, 24 h
[2] = Photocytotoxicity against human MCF-10A cells assessed as inhibition of cell growth incubated for 24 hrs by MTT assay; type: toxicity, cell-based
[3] = system: MDA-MB-231; assay: Induction of apoptosis in human MDA-MB-231 cells assessed as early apoptotic cells at 30 nM preincubated with compound for 24 hrs followed by 540 nm light irradiation for 1 hrs by Annexin V-FITC/PI staining based flow cytometric analysis (reference value: 19.2%); type: functional; settings: time 25 hrs
[4] = system: MDA-MB-231; assay: Cell cycle arrest in human MDA-MB-231 cells assessed as accumulation of cells at G2/M phase incubated for 24 hrs by RNase A/PI staining based flow cytometric analysis relative to control; type: functional
[5] = system: HT-29; assay: Photocytotoxicity against human HT-29 cells assessed as inhibition of cell growth incubated for 24 hrs by MTT assay; type: functional, cell-based; settings: HT-29, 24 h
[6] = system: HCT-116; assay: Photocytotoxicity against human HCT-116 cells assessed as inhibition of cell growth incubated for 24 hrs by MTT assay; type: functional, cell-based; settings: HCT-116, 24 h
[7] = Emission property of the compound by fluorescence spectrophotometer analysis; type: physicochemical
[8] = system: MDA-MB-231; assay: Cell cycle arrest in human MDA-MB-231 cells assessed as accumulation of cells at S phase at 30 nM preincubated with compound for 15 mins followed by light irradiation and measured after 3 to 24 hrs by RNase A/PI staining based flow cytometric analysis (reference value: 16.4%); type: functional; settings: time 195-1455 min
[9] = system: MDA-MB-231; assay: Cell cycle arrest in human MDA-MB-231 cells assessed as accumulation of cells at G1 phase at 30 nM preincubated with compound for 15 mins followed by light irradiation and measured after 3 to 24 hrs by RNase A/PI staining based flow cytometric analysis (reference value: 65.7%); type: functional; settings: time 195-1455 min
[10] = Fluorescence property of the compound assessed as fluorescence quantum yield in EtOH; type: physicochemical
[11] = system: MDA-MB-231; assay: Cell cycle arrest in human MDA-MB-231 cells assessed as accumulation of cells at S phase at 60 nM preincubated with compound for 15 mins followed by light irradiation and measured after 3 to 24 hrs by RNase A/PI staining based flow cytometric analysis (reference value: 16.4%); type: functional; settings: time 195-1455 min
[12] = system: MDA-MB-231; assay: Induction of apoptosis in human MDA-MB-231 cells assessed as late apoptotic cells at 30 nM incubated for 24 hrs under dark condition by Annexin V-FITC/PI staining based flow cytometric analysis relative to control; type: functional
[13] = system: MDA-MB-231; assay: Induction of apoptosis in human MDA-MB-231 cells assessed as necrotic cells at 30 nM preincubated with compound for 24 hrs followed by 540 nm light irradiation for 1 hrs by Annexin V-FITC/PI staining based flow cytometric analysis (reference value: 2.7%); type: functional; settings: time 25 hrs
[14] = Photosensitizing ability of the compound in MeOH assessed as singlet oxygen generation at 408 nm measured upto 120 sec by DPBF based assay; type: functional
[15] = system: MDA-MB-231; assay: Induction of apoptosis in human MDA-MB-231 cells assessed as late apoptotic cells at 30 nM preincubated with compound for 24 hrs followed by 540 nm light irradiation for 1 hrs by Annexin V-FITC/PI staining based flow cytometric analysis (reference value: 17.1%); type: functional; settings: time 25 hrs
[16] = system: MDA-MB-231; assay: Induction of oxidative stress on human MDA-MB-231 cells assessed as increase in ROS population incubated for 24 hrs under dark condition by CM-H2DCFDA staining based analysis relative to control; type: functional
[17] = Absorption property of the compound assessed as decay lifetime; type: physicochemical
[18] = system: MDA-MB-231; assay: Cell cycle arrest in human MDA-MB-231 cells assessed as accumulation of cells at S phase incubated for 24 hrs by RNase A/PI staining based flow cytometric analysis relative to control; type: functional
[19] = Absorption property of the compound by UV-vis spectrophotometer; type: physicochemical
[20] = system: MDA-MB-231; assay: Cell cycle arrest in human MDA-MB-231 cells assessed as accumulation of cells at G2/M phase at 30 nM preincubated with compound for 15 mins followed by light irradiation and measured after 3 to 24 hrs by RNase A/PI staining based flow cytometric analysis (reference value: 12.9%); type: functional; settings: time 195-1455 min
[21] = system: MDA-MB-231; assay: Induction of apoptosis in human MDA-MB-231 cells assessed as necrotic cells at 60 nM preincubated with compound for 24 hrs followed by 540 nm light irradiation for 1 hrs by Annexin V-FITC/PI staining based flow cytometric analysis (reference value: 2.7%); type: functional; settings: time 25 hrs
[22] = system: MDA-MB-231; assay: Induction of apoptosis in human MDA-MB-231 cells assessed as early apoptotic cells at 30 nM incubated for 24 hrs under dark condition by Annexin V-FITC/PI staining based flow cytometric analysis relative to control; type: functional
[23] = system: MDA-MB-231; assay: Induction of apoptosis in human MDA-MB-231 cells assessed as late apoptotic cells at 60 nM preincubated with compound for 24 hrs followed by 540 nm light irradiation for 1 hrs by Annexin V-FITC/PI staining based flow cytometric analysis (reference value: 17.1%); type: functional; settings: time 25 hrs
[24] = Drug localization in mitochondria of human MDA-MB-231 cells incubated for 1 hrs by Mitotracker deep red/Hoechst staining based confocal microscopic analysis; type: ADME; settings: mda-mb-231, 1 h
[25] = system: MDA-MB-231; assay: Induction of apoptosis in human MDA-MB-231 cells assessed as early apoptotic cells at 60 nM preincubated with compound for 24 hrs followed by 540 nm light irradiation for 1 hrs by Annexin V-FITC/PI staining based flow cytometric analysis (reference value: 19.2%); type: functional; settings: time 25 hrs
[26] = system: MDA-MB-231; assay: Induction of oxidative stress on human MDA-MB-231 cells assessed as increase in ROS population at 30 nM preincubated with compound for 24 hrs followed by 540 nm light irradiation for 1 hrs by CM-H2DCFDA staining based analysis (reference value: 2.5%); type: functional; settings: time 25 hrs
[27] = system: MDA-MB-231; assay: Induction of oxidative stress on human MDA-MB-231 cells assessed as increase in ROS population at 60 nM preincubated with compound for 24 hrs followed by 540 nm light irradiation for 1 hrs by CM-H2DCFDA staining based analysis (reference value: 2.5%); type: functional; settings: time 25 hrs
[28] = system: MDA-MB-231; assay: Induction of apoptosis in human MDA-MB-231 cells assessed as necrotic cells at 30 nM incubated for 24 hrs under dark condition by Annexin V-FITC/PI staining based flow cytometric analysis relative to control; type: functional
[29] = system: MDA-MB-231; assay: Cell cycle arrest in human MDA-MB-231 cells assessed as accumulation of cells at G2/M phase at 60 nM preincubated with compound for 15 mins followed by light irradiation and measured after 3 to 24 hrs by RNase A/PI staining based flow cytometric analysis (reference value: 12.9%); type: functional; settings: time 195-1455 min
[30] = Absorption property of the compound assessed as molar extinction co-effecient by UV-vis spectrophotometer; type: physicochemical
[31] = system: MCF7; assay: Photocytotoxicity against human MCF7 cells assessed as inhibition of cell growth incubated for 24 hrs by MTT assay; type: functional, cell-based; settings: MCF7, 24 h
[32] = system: MDA-MB-231; assay: Cell cycle arrest in human MDA-MB-231 cells assessed as accumulation of cells at G1 phase incubated for 24 hrs by RNase A/PI staining based flow cytometric analysis relative to control; type: functional
[33] = system: MDA-MB-231; assay: Cell cycle arrest in human MDA-MB-231 cells assessed as accumulation of cells at G1 phase at 60 nM preincubated with compound for 15 mins followed by light irradiation and measured after 3 to 24 hrs by RNase A/PI staining based flow cytometric analysis (reference value: 65.7%); type: functional; settings: time 195-1455 min
[34] = Absorption property of the compound assessed as triplet quantum yield by UV-vis spectrophotometer; type: physicochemical

C#CCOc1ccc(C2=C3C(C)=C(I)C(C)=[N+]3[B-](F)(F)n3c(C)c(I)c(C)c32)cc1
IC50 [1]: 25.2 nM

CC1=C(I)C(C)=[N+]2C1=C(c1ccc(OCc3cn(CCOCCOCCOCCOCCNC(=O)CCCCC4SCC5NC(=O)NC54)nn3)cc1)c1c(C)c(I)c(C)n1[B-]2(F)F (stereo not given)
IC50 at 24 h [2]: 177 nM
Activity [3]: 10.5%
Activity [4]: 13.3%
IC50 [5]: 88.2 nM
IC50 [6]: 74.9 nM
IC50 [1]: 52.2 nM
Activity [7]: 549 nm
Activity [8]: 14.6%
Activity [9]: 63%
Activity [10]: 0.039
Activity [11]: 15.5%
Activity [12]: 11.5%
Activity [13]: 12.1%
Activity [14]: 0.34
Activity [15]: 11.2%
Activity [16]: 5.9%
Time [17]: 2.5 microsec
Activity [18]: 18.1%
Activity [19]: 533 nm
Activity [20]: 19.2%
Activity [21]: 40.1%
Activity [22]: 5.6%
Activity [23]: 34.1%
Drug uptake [24]: Active
Activity [25]: 4.5%
Activity [26]: 92.3%
Activity [27]: 92.4%
Activity [28]: 5.8%
Activity [29]: 22%
Activity [30]: 91000 M⁻¹ cm⁻¹
IC50 [31]: 54.1 nM
Activity [32]: 63.3%
Activity [33]: 58.7%
Activity [34]: 0.44
